Measurements as given in ChEMBL document CHEMBL3885861, “Open TG-GATES”.

Species: Rattus norvegicus
Experiment: Open TG-GATES - Regimen: Single
Assay type: toxicity, organism-based, Sprague-Dawley
Parameters: regimen Single, gender Male, age 6 weeks
Conditions: in vivo, po, 300 mg/kg, route gavage, dose level Low; for APTT / Bas / Eos / Fbg / Hb / Ht / Lym / MCH / MCHC / MCV / Mono / Neu / PT / Plat / RBC / Ret / WBC: tissue Blood; for KIDNEY_L / KIDNEY_R / KIDNEY_TOTAL: tissue Kidney; for LIVER: tissue Liver; for A/G / ALP / ALT / AST / BUN / CRE / Ca / Cl / DBIL / GLC / IP / K / LDH / Na / PL / RALB / TBIL / TC / TG / TP / gamma-GTP: tissue Plasma

In the case of `CC(=O)[C@@]1(O)CC[C@H]2[C@@H]3C=C(Cl)C4=CC(=O)CC[C@]4(C)[C@H]3CC[C@@]21C` [CHLORMADINONE], the TERMINAL_BW (3 h) is reported as 219.9 g, the APTT (3 h) is reported as 22.1 s and the Bas (3 h) is reported as 0%. For the same molecule, the Eos (3 h) was 1%, the Fbg (3 h) was 310.8 mg/dL and the Hb (3 h) was 13 g/dL. For the same molecule, the Ht (3 h) was 40.3%, the Lym (3 h) was 75% and the MCH (3 h) was 20.5 pg. The MCHC (3 h) was 32.4%, the MCV (3 h) was 63.3 fL and the Mono (3 h) was 1.8%. It also gave a Neu (3 h) of 22.4%, a PT (3 h) of 15.2 s and a Plat (3 h) of 115.5 x10_4/uL. It also gave an RBC (3 h) of 637.8 x10_4/ul, a Ret (3 h) of 7.3% and a WBC (3 h) of 52.5 x10_2/uL. The KIDNEY_L (3 h) was 0.9 g, the KIDNEY_R (3 h) was 1 g and the KIDNEY_TOTAL (3 h) was 1.9 g. The LIVER (3 h) was 10.4 g, the A/G (3 h) was 1.3 and the ALP (3 h) was 1442.2 IU/L. It also gave an ALT (3 h) of 48 IU/L, an AST (3 h) of 78.6 IU/L and a BUN (3 h) of 16 mg/dL. For the same molecule, the CRE (3 h) was 0.2 mg/dL, the Ca (3 h) was 11 mg/dL and the Cl (3 h) was 105.4 meq/L. It also gave a DBIL (3 h) of 0 mg/dL, a GLC (3 h) of 181.4 mg/dL and an IP (3 h) of 9.3 mg/dL. The K (3 h) was 4.2 meq/L, the LDH (3 h) was 140.6 IU/L and the Na (3 h) was 143 meq/L. It also gave a PL (3 h) of 147.2 mg/dL, an RALB (3 h) of 3.1 g/dL and a TBIL (3 h) of 0.024 mg/dL. The TC (3 h) was 79.8 mg/dL, the TG (3 h) was 51.6 mg/dL and the TP (3 h) was 5.6 g/dL. For the same molecule, the gamma-GTP (3 h) was 1.6 IU/L, the TERMINAL_BW (6 h) was 217.9 g and the APTT (6 h) was 24.4 s. For the same molecule, the Bas (6 h) was 0%, the Eos (6 h) was 0.8% and the Fbg (6 h) was 317.6 mg/dL. The Hb (6 h) was 13.1 g/dL, the Ht (6 h) was 40.7% and the Lym (6 h) was 77.2%. For the same molecule, the MCH (6 h) was 20.6 pg, the MCHC (6 h) was 32.3% and the MCV (6 h) was 63.8 fL. The Mono (6 h) was 1.8%, the Neu (6 h) was 20% and the PT (6 h) was 15.6 s. The Plat (6 h) was 106.2 x10_4/uL, the RBC (6 h) was 638.2 x10_4/ul and the Ret (6 h) was 7.9%. For the same molecule, the WBC (6 h) was 68.9 x10_2/uL, the KIDNEY_L (6 h) was 1 g and the KIDNEY_R (6 h) was 1 g. For the same molecule, the KIDNEY_TOTAL (6 h) was 2 g, the LIVER (6 h) was 10.3 g and the A/G (6 h) was 1.3. It also gave an ALP (6 h) of 1567.8 IU/L, an ALT (6 h) of 39.4 IU/L and an AST (6 h) of 72.8 IU/L. The BUN (6 h) was 12.6 mg/dL, the CRE (6 h) was 0.1 mg/dL and the Ca (6 h) was 10.5 mg/dL. It also gave a Cl (6 h) of 105.8 meq/L, a DBIL (6 h) of 0 mg/dL and a GLC (6 h) of 181.8 mg/dL. For the same molecule, the IP (6 h) was 9.2 mg/dL, the K (6 h) was 4.4 meq/L and the LDH (6 h) was 159.6 IU/L. For the same molecule, the Na (6 h) was 141.4 meq/L, the PL (6 h) was 134.8 mg/dL and the RALB (6 h) was 3.1 g/dL. It also gave a TBIL (6 h) of 0.032 mg/dL, a TC (6 h) of 80.8 mg/dL and a TG (6 h) of 35 mg/dL. For the same molecule, the TP (6 h) was 5.6 g/dL, the gamma-GTP (6 h) was 1.8 IU/L and the TERMINAL_BW (9 h) was 219.9 g. For the same molecule, the APTT (9 h) was 24.1 s, the Bas (9 h) was 0% and the Eos (9 h) was 0.2%. It also gave a Fbg (9 h) of 325.6 mg/dL, a Hb (9 h) of 13.2 g/dL and a Ht (9 h) of 41%. It also gave a Lym (9 h) of 79.4%, an MCH (9 h) of 20.2 pg and an MCHC (9 h) of 32%. The MCV (9 h) was 63.1 fL, the Mono (9 h) was 1% and the Neu (9 h) was 18.8%. For the same molecule, the PT (9 h) was 15.6 s, the Plat (9 h) was 113.9 x10_4/uL and the RBC (9 h) was 651.2 x10_4/ul. For the same molecule, the Ret (9 h) was 7.9%, the WBC (9 h) was 52.5 x10_2/uL and the KIDNEY_L (9 h) was 1 g. The KIDNEY_R (9 h) was 1 g, the KIDNEY_TOTAL (9 h) was 2 g and the LIVER (9 h) was 10.4 g. For the same molecule, the A/G (9 h) was 1.3, the ALP (9 h) was 1458.4 IU/L and the ALT (9 h) was 39.4 IU/L. For the same molecule, the AST (9 h) was 72 IU/L, the BUN (9 h) was 14.2 mg/dL and the CRE (9 h) was 0.1 mg/dL. The Ca (9 h) was 10.8 mg/dL, the Cl (9 h) was 105.4 meq/L and the DBIL (9 h) was 0 mg/dL. It also gave a GLC (9 h) of 201.8 mg/dL, an IP (9 h) of 8.9 mg/dL and a K (9 h) of 4.5 meq/L. It also gave an LDH (9 h) of 153.6 IU/L, a Na (9 h) of 140.6 meq/L and a PL (9 h) of 152 mg/dL. It also gave an RALB (9 h) of 3.2 g/dL, a TBIL (9 h) of 0.026 mg/dL and a TC (9 h) of 83 mg/dL. For the same molecule, the TG (9 h) was 79 mg/dL, the TP (9 h) was 5.6 g/dL and the gamma-GTP (9 h) was 1.6 IU/L. For the same molecule, the TERMINAL_BW (24 h) was 225.1 g, the APTT (24 h) was 25.2 s and the Bas (24 h) was 0%. It also gave an Eos (24 h) of 1.2%, a Fbg (24 h) of 336.2 mg/dL and a Hb (24 h) of 13.8 g/dL. It also gave a Ht (24 h) of 41.9%, a Lym (24 h) of 80.4% and an MCH (24 h) of 21.1 pg. It also gave an MCHC (24 h) of 32.9%, an MCV (24 h) of 64 fL and a Mono (24 h) of 2.4%. For the same molecule, the Neu (24 h) was 15.2%, the PT (24 h) was 15.5 s and the Plat (24 h) was 121.2 x10_4/uL. The RBC (24 h) was 654.4 x10_4/ul, the Ret (24 h) was 7.7% and the WBC (24 h) was 124 x10_2/uL. For the same molecule, the KIDNEY_L (24 h) was 1 g, the KIDNEY_R (24 h) was 1 g and the KIDNEY_TOTAL (24 h) was 2 g. For the same molecule, the LIVER (24 h) was 11 g, the A/G (24 h) was 1.3 and the ALP (24 h) was 1795.2 IU/L. For the same molecule, the ALT (24 h) was 46.2 IU/L, the AST (24 h) was 73 IU/L and the BUN (24 h) was 18.8 mg/dL. For the same molecule, the CRE (24 h) was 0.2 mg/dL, the Ca (24 h) was 10.6 mg/dL and the Cl (24 h) was 106.4 meq/L. For the same molecule, the DBIL (24 h) was 0 mg/dL, the GLC (24 h) was 184 mg/dL and the IP (24 h) was 8.1 mg/dL. The K (24 h) was 4.5 meq/L, the LDH (24 h) was 204.8 IU/L and the Na (24 h) was 141 meq/L. The PL (24 h) was 169.2 mg/dL, the RALB (24 h) was 3.1 g/dL and the TBIL (24 h) was 0.004 mg/dL. For the same molecule, the TC (24 h) was 83.8 mg/dL, the TG (24 h) was 175 mg/dL and the TP (24 h) was 5.6 g/dL. It also gave a gamma-GTP (24 h) of 2 IU/L.
